Like-named read-outs stand apart in the source and are kept apart here. Values belong to the compound of their own block, whether it stands above or below them.
What was measured:
S1P3R [1] = molecular target: T1, S1P3R (Homo sapiens, UniProt Q99500); experiment: [35S]GTPγS binding to membranes, S1P3R; format: biochemical
T1 construct: expressed in transfected cells; membranes
Experimental: (§1) S1P1R is a GPCR that couples exclusively to the inhibitory G protein (Gαi), decreasing adenylate cyclase activity and lowering cyclic adenosine monophosphate (cAMP levels) in the cell. The potency of Compound 1 was tested against the S1P1 receptor (S1P1R) and related family members. The potency and S1P receptor selectivity were measured using two independent in vitro assays, [^35S]guanosine-5′-O-(3-thio)triphosphate ([^35S]GTPγS) and β-lactamase gene expression and activity. The GTPγS binding to membranes prepared from stable mammalian cells lines expressing recombinant human S1P receptors 1-5 (S1P1R-S1P5R) was used to pharmacologically characterize ligand interaction with the S1P receptor family members. […] Membrane-bead complexes were then pelleted by centrifugation before the bound radioactivity was quantified with a MicroBeta2® microplate scintillation counter. The radioactive counts relative to DMSO vehicle were calculated and the half maximal effective concentration (EC50) was determined using non-linear regression.

S1P5R [2] = molecular target: T2, S1P5R (Homo sapiens, UniProt Q9H228); experiment: [35S]GTPγS binding to membranes, S1P5R; format: biochemical
T2 construct: expressed in transfected cells; membranes
T2 sequence (Q9H228 whole entry): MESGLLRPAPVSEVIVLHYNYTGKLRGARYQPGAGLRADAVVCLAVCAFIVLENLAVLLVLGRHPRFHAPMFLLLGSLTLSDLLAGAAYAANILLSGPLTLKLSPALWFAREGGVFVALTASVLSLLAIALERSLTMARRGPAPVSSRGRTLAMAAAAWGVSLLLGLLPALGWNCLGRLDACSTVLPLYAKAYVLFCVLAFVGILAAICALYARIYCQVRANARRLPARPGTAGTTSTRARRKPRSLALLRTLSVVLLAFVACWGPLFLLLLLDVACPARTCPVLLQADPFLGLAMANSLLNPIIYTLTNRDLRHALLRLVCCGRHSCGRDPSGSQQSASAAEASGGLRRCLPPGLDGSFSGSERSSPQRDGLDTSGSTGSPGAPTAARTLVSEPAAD
Experimental: as §1

S1P2R = molecular target: T3, S1P2R (Homo sapiens, UniProt O95136); experiment: [35S]GTPγS binding to membranes, S1P2R; format: biochemical
T3 construct: expressed in transfected cells; membranes
T3 sequence (O95136 whole entry): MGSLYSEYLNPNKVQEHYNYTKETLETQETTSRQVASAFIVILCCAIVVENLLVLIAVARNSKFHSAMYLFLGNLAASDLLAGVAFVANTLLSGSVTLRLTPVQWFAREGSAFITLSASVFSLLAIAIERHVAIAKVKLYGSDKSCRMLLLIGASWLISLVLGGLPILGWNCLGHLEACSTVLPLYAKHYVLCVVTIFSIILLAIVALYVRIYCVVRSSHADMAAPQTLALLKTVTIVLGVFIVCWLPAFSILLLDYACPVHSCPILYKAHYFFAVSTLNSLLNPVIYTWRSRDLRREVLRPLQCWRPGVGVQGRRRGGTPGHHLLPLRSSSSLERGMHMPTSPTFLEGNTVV
Experimental: as §1

S1P4R [3] = molecular target: T4, S1P4R (Homo sapiens, UniProt O95977); experiment: [35S]GTPγS binding to membranes, S1P4R; format: biochemical
T4 construct: expressed in transfected cells; membranes
T4 sequence (O95977 1-384): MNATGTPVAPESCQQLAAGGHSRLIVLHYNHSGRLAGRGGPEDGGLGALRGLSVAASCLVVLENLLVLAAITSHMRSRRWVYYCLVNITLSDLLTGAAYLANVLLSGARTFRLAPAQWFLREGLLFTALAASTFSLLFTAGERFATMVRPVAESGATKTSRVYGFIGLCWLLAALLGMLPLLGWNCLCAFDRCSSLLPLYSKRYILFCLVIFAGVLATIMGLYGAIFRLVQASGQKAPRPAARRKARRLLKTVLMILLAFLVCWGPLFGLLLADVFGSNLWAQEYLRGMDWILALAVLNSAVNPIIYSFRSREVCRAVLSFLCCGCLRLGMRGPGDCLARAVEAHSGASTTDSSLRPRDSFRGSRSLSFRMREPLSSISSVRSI
Experimental: as §1

[4] = Clinical PK, Phase 1 study of ozanimod HCl in relapsing remitting multiple sclerosis subjects; format: in vivo, human; details: for Tmax: read-out: Median Tmax; for % of total agonist exposure at steady state: total agonist = sum of ozanimod and active metabolites, ozanimod HCl PO QD
Excerpt: Serial blood PK samples were collected on Days 1 and the last day of dosing.

S1P1R [5] = molecular target: T5, S1P1R (Homo sapiens, UniProt P21453); experiment: β-lactamase gene expression and activity whole-cell assay, S1P1R; format: cell-based; details: stable cells expressing recombinant human S1P1R
T5 construct: expressed in transfected cells; membranes
T5 sequence (P21453 whole entry): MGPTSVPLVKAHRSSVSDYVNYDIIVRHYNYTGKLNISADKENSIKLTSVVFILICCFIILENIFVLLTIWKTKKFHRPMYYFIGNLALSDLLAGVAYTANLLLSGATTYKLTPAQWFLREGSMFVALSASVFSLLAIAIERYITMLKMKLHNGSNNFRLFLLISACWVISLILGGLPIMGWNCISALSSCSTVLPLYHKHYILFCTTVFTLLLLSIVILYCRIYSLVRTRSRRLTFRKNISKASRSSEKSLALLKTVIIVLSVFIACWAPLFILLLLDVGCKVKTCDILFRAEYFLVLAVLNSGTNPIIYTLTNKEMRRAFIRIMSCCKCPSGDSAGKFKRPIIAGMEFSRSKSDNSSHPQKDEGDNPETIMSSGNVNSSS
Experimental: (§2) Up-regulation of β-lactamase gene expression and activity were used as a whole-cell functional readout of S1P receptor activation. […] The respective β-lactamase activity was then determined using a fluorescence resonance energy transfer (FRET)-based β-lactamase fluorescent substrate (LiveBLAzer™-FRET B/G Loading Kit CCF4-AM) according to manufacturer's instructions, and incubated with cells for 2 hours at RT. Plates were read using a SpectraMax M5 Multi-Mode microplate reader and the relative response to DMSO vehicle calculated for the EC50 determination using non-linear regression.

S1P4R [6] = molecular target: T4, S1P4R; experiment: β-lactamase gene expression and activity whole-cell assay, S1P4R; format: cell-based; details: stable cells expressing recombinant human S1P4R
Experimental: as §2

S1P1R [7] = molecular target: T5, S1P1R; experiment: [35S]GTPγS binding to membranes, S1P1R; format: biochemical
Experimental: as §1

S1P5R [8] = molecular target: T2, S1P5R; experiment: β-lactamase gene expression and activity whole-cell assay, S1P5R; format: cell-based
Experimental: as §2

[9] = Compound 1 single dose pharmacokinetics in the rat; format: in vivo; details: Sprague-Dawley, plasma; for AUC(0-t): read-out: AUC0-24; for half-life: read-out: t½ (converted)
Experimental: Plasma samples (50 μL) were aliquoted into a 96 deep-well polypropylene plate (2 mL/well) and 5 μL of dimethyl sulfoxide (DMSO) was added. Samples expected to be above the upper limit of quantitation (ULOQ) were diluted with plasma. Standard curves were prepared by mixing 5 μL of the test compound in DMSO at 10 times the concentration which was added to 50 μL of plasma in a 96 deep-well polypropylene plate. For example, for a 0.3 μM standard, the 10×DMSO concentration of the test compound was 3 μM. Standard curves were prepared using analytical standards of Compound 1. Protein was precipitated from study samples and standards by the addition of 150 μL of acetonitrile. The plate was vortexed to ensure complete precipitation of protein. The precipitated protein was pelleted by centrifugation at 4,000 rpm for 10 min at 20° C. and the clear supernatant was transferred to a clean 96-well plate and centrifuged again under the same conditions to pellet any transferred solid material.
Samples (7 μL) were introduced to a Shimadzu HPLC (LC-20ADXR) with a SIL-30ACMP autosampler (Shimadzu). The mobile phase was a gradient using 0.1% formic acid in water and 0.1% formic acid in acetonitrile. The column used was a Phenomenex Kinetic C18 100 A 2.6μ30×3 mm (PN 946975-906). The CTO-20AC column oven (Shimadzu) was set at 40° C. Prepared samples were usually analyzed in order of lowest to highest concentration for standards and reverse order of time-points for study samples. Study samples were bracketed by full standard curves. Typically at least 6 standards were used for quantitation with a percent accuracy of +/−15% for all standards except at the lower level of quantitation (LLOQ) where a percent accuracy of +/−20% was allowed.
An ABSciex Instruments Triple Quad 5500 Mass Spectrometer (Analyst 1.6.3) was used for detection in the MRM mode. Ionization was achieved by positive or negative electrospray with a source temperature of 600° C. Negative and positive mode analysis was performed in the same injection. Standard samples were usually analyzed in order of lowest to highest concentration. Typically at least six standards were used for quantification with a percent accuracy of +/−15% for all standards except at the LLOQ where a percent accuracy of +/−20% was allowable. Study samples were analyzed in reverse chronological order bracketed with bracketing standard curves.
Blood concentration versus time data are analyzed using non-compartmental methods (WinNonlin version 5.2; model 200 for oral dosing and model 202 for intravenous infusion). Absolute oral bioavailability (%) is calculated using the following expression: (Oral AUC×IV Dose)/(IV AUC×Oral Dose)×100.
Compound 1 was administered in a formulation of 10% volume/volume (v/v) DMSO and 5% v/v Tween 20 in water by IV administration (10 mL/kg) or 0.5% weight/volume (w/v) CMC in water by oral gavage (10 mL/kg). Animals received 0.2 mg/kg as the IV dose or 2 mg/kg/day orally as a single administration. Blood samples were collected at 1, 5, and 30 minutes, 2, 4, 8, 10, 24, […], 48, and 72 hours after IV dosing and 1, 2, 3, 4, 6, 8, 10, 12, 24, 48, and 72 hours following oral dosing. Blood was collected into tubes containing the anti-coagulant K2EDTA and processed to plasma. Plasma concentrations for each analyte were determined using a qualified LC-MS/MS method.

circulating lymphocytes = experiment: Assessment of circulating lymphocyte counts after single oral dose; format: in vivo, Sprague Dawley rats; details: rat, 2 mg/kg oral single dose
Experimental: Whole blood samples were collected from acclimated, conscious male Sprague Dawley rats in the fed state using percutaneous jugular vein puncture at pre-dose and 3, 6 and 24 hours after single oral dose administration of vehicle or test compound. Blood samples were collected into K2EDTA tubes, thoroughly mixed and stored on wet ice until analyzed. Circulating lymphocyte counts were assessed by two methods from individual aliquots of the same samples. Total lymphocyte counts were determined in a standard hematology panel on a calibrated analyzer (Test #416; Horiba Medical ABX Pentra XL 80) and by in-house flow cytometry using fluorescent-activated cell sorting (FACS) analysis to determine the number of CD4+, CD8+ and B220+ lymphocytes (ThermoFisher Attune NxT flow cytometer). Data are expressed as follows for absolute lymphocyte counts (hematology analyzer), the individual lymphocyte subtypes (CD4+, CD8+ and B220+) and the sum of the individual lymphocyte subtypes (flow cytometry). • Number of lymphocytes per μL whole blood. • Percentage change relative to each group's pre-dose baseline at each time point
Whole blood samples (K2EDTA) were analyzed on the flow cytometer (ThermoFisher Attune NxT) using rat antibodies, as detailed below. The baseline and 3 hour post-dose samples were analyzed on the same day as collection. The 6 hour post-dose samples were analyzed after overnight storage at 4° C. (on wet ice in a 2-8° C. fridge) and on the same day as the 24 hour post-dose samples were collected and analyzed.
The oral dose level of 2 mg/kg of Compound 1 administered to the animals was intended to induce a significant reduction (˜≥60%) in the number of circulating lymphocyte. Following acclimation, blood samples were serially collected from the jugular vein of conscious Sprague Dawley rats prior to dosing and 3 hours, 6 and 24 hours after administration. The absolute number of circulating lymphocytes was quantified in whole blood samples using a hematology analyzer and the CD4^+, CD8^+ and B220^+ lymphocyte subtypes by flow cytometry. The plasma concentrations for each compound were quantified with liquid chromatography, tandem mass spectrometry.

S1P3R [10] = molecular target: T1, S1P3R; experiment: β-lactamase gene expression and activity whole-cell assay, S1P3R; format: cell-based; details: stable cells expressing recombinant human S1P3R
Experimental: as §2

[11] = Table 4 comparative selectivity, agonist values, read-out: EC50 S1P3
[12] = Table 4 comparative selectivity, agonist values, read-out: EC50 S1P2
[13] = Table 4 comparative selectivity, agonist values, read-out: EC50 S1P4

T1 sequence (Q99500 whole entry): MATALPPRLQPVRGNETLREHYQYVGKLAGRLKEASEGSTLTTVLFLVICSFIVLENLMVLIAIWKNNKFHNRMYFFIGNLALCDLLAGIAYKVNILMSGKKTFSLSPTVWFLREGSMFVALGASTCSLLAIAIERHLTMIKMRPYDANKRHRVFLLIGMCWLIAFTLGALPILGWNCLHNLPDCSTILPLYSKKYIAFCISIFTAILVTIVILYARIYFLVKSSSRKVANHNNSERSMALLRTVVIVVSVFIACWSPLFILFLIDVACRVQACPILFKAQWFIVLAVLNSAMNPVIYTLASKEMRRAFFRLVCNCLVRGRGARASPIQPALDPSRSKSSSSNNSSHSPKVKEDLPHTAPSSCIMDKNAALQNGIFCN

EC50 (S1P3R [1]; [11]): > 5000 nM
EC50 (S1P5R [2]; Table 4 comparative selectivity, agonist values, read-out: EC50 S1P5): 5.1 nM
EC50 (S1P2R; [12]): > 10000 nM
EC50 (S1P4R [3]; [13]): 2040 nM
half-life ([4]; human, blood, po, 1 mg, read-out: Mean t1/2 (at steady state)): 15 to 23 h
Tmax ([4]; human, blood, po): 6 to 8 h
% of total agonist exposure at steady state [4]: Ozanimod: 3% to 6%
Structure (SMILES): CC(C)Oc1ccc(-c2nc(-c3cccc4c3CC[C@@H]4NCCO)no2)cc1C#N [Ozanimod, reference compound]

EC50 (S1P3R [1]; [11]): > 5000 nM
EC50 (S1P3R [1]; recombinant human S1P3R membranes, read-out: EC50 S1P3R GTPγS): > 5000 nM
EC50 (S1P1R [5]): 0.04 nM
EC50 (S1P4R [6]): > 10000 nM
selectivity for S1P1R over S1P2R, S1P3R and S1P4R (S1P1R [7]; [35S]GTPγS binding activity readout): greater than 1000 fold
EC50 (S1P1R [7]; recombinant human S1P1R membranes): 2.1 nM
selectivity for S1P5R over S1P2R, S1P3R and S1P4R (S1P5R [2]; GTPγS readout): greater than 200 fold
EC50 (S1P5R [2]; recombinant human S1P5R membranes, read-out: EC50 S1P5R GTPγS): 17.9 nM
EC50 (S1P2R; [12]): > 10000 nM
EC50 (S1P2R; recombinant human S1P2R membranes, read-out: EC50 S1P2R GTPγS): > 10000 nM
EC50 (S1P4R [3]; [13]): > 10000 nM
EC50 (S1P4R [3]; recombinant human S1P4R membranes, read-out: EC50 S1P4R GTPγS): > 10000 nM
EC50 (S1P5R [8]; stable cells expressing recombinant human S1P5R): 6.9 nM
selectivity for S1P5R over S1P2R, S1P3R and S1P4R (S1P5R [8]; β-lactamase readout): greater than 200 fold
Peak-to-trough ratio (at steady state) ([4]; RMS subjects, ozanimod HCl 0.5 or 1 mg PO QD, steady state): 1.3- to 1.6-fold
Tmax ([4]; human, blood, po): 6 to 10 h
% of total agonist exposure at steady state [4]: 85% to 93%
Cmax ([9]; 0.2 mg/kg IV, single dose): 743 nM
Tmax ([9]; 0.2 mg/kg IV, single dose): 0.02 h
AUC(0-t) ([9]; 0.2 mg/kg IV, single dose): 0.386 µM·h
half-life ([9]; 0.2 mg/kg IV, single dose): 1.62 h
Cmax ([9]; 2.0 mg/kg oral, single dose): 14.8 nM
Tmax ([9]; 2.0 mg/kg oral, single dose): 3 h
Vd/F ([9]; 2.0 mg/kg oral, single dose): 292 L/kg
AUC(0-t) ([9]; 2.0 mg/kg oral, single dose): 0.0954 µM·h
half-life ([9]; 2.0 mg/kg oral, single dose): 3.73 h
bioavailability ([9]; 2.0 mg/kg oral vs 0.2 mg/kg IV): 2.5%
EC50 (S1P3R [10]): > 10000 nM
Structure (SMILES): CC(C)Oc1ccc(-c2nc(-c3cccc4c3CCC4=O)no2)cc1C#N [Compound 1, 2-isopropoxy-5-(3-(1-oxo-2,3-dihydro-1H-inden-4-yl)-1,2,4-oxadiazol-5-yl)benzonitrile]
time of maximum effect on lymphocyte counts (circulating lymphocytes): by six hours after administration
effect on lymphocyte counts at the 24 hour time-point (circulating lymphocytes; 24 hours): without significant effect
reduction of B220+ lymphocyte population relative to pre-dose (circulating lymphocytes; flow cytometry): 35%
reduction of CD4+ lymphocyte population relative to pre-dose (circulating lymphocytes; flow cytometry): 68%
reduction of CD8+ lymphocyte population relative to pre-dose (circulating lymphocytes; flow cytometry): 62%
reduction of total circulating lymphocyte counts (total number of CD4+, CD8+ and B220+) relative to pre-dose (circulating lymphocytes; flow cytometry): 52%
fewer lymphocytes relative to pre-dose values (circulating lymphocytes; hematology analyzer): 44%
